This is an account of results in patent publication US20160361250A1, “ACTIVE INGREDIENTS STIMULATING TYPE 2 AND/OR TYPE 3 HUMAN BETA-DEFENSINS AND COSMETIC OR PHARMACEUTICAL COMPOSITIONS CONTAINING SUCH ACTIVE INGREDIENTS” (BASF Beauty Care Solutions France S.A.S., priority 2002, published 2016).

Molecules are shown by their SMILES.

One test relates to hBD3. Briefly: Qualitative RT-PCR of hBD3 expression, 1st step of the screening method. The class given is cell-based. Particulars: 100 μg/mL; normal human keratinocytes, 16 h. The method, then:
(§1) At 80% confluence, cells are contacted with the actives (1 active per well) for 16 h. An untreated control and 2 positive controls (TNFα 100 ng/mL for hBD2 and IFNγ 100 ng/mL for hBD3) are set up in parallel on the same culture plate.
(§2) After 16 h, the supernatants are collected and cells are dry frozen at −80° C. after rinsing in PBS.
(§3) Total RNA are extracted using a 96-well extraction kit on silica columns and assayed using a 96-well spectrophotometer at 260 and 280 nm. RNA are diluted to 5 ng/mL.
(§4) Qualitative one-step RT-PCR is performed on 50 ng of initial RNA in 96 wells, on actin, hBD2 and hBD3. The primers are used at a concentration of 0.5 μM and arc taken from the literature:—hBD2: sense: 5′-[…]-3′; hBD2 antisense 5′-[…]-3′ (Harder J. et al., A peptide antibiotic from human skin. Nature 1997; 387 : 861); hBD3 sense: 5′-[…]-3′; hBD3 antisense: 5′-[…]-3′; actin sense: 5′-[…]-3′; actin antisense: 5′-[…]-3′ (Harder J. et al., Isolation and characterization of human β-defensin-3, a novel human inducible peptide antibiotic. J Biol Chem 2001, 276 : 5707-5713).
(§5) Samples are placed in a thermocycler and follow a common amplification program: 50° C., 30 min; 94° C., 2 min, (94° C., 30 s; 60° C., 30 s; 68° C., 30 s), 32 cycles for the defensins and 30 cycles for actin; 72° C., 10 min; 14° C., infinite.
(§6) After amplification, the products are mixed at a rate of 3 μL of actin amplification products+6 μL of hBD2 amplification products+6 μL of hBD3 amplification products. 5 μL of a mixture of charge buffer and water (⅔) are added and the final 20 μL are deposited on 2% premoulded agarose gel. The samples migrate in 30 minutes and the bands are visualised under UV in a dark room then digitally photographed.
(§7) Photos of the gels are analysed by image processing software which quantifies the intensity of the bands. As the basal level of defensin expression (untreated control) is not detectable, the intensity ratios of the hBD2/actin and hBD3/actin bands can be compared, for example with those obtained for the positive control (treated with TNFα for hBD2 and IFNγ for hBD3) and indicate any stimulation of the expression of the β-defensin in question
(§8) Since the basal level of defensin expression is generally not detectable, stimulation of hBD2 and hBD3 is expressed as a percentage of the positive controls (TNFα for hBD2 and IFNγ for hBD3). IL8 and MIP3α levels are given as pg/mL/RNA concentration (in ng/μL).

The test system of a further test is IL8. The test is described as follows: ELISA of IL8 secreted into the culture medium, 1st step. The class given is cell-based, human. Particulars: 100 μg/mL; keratinocyte supernatant, 16 h. The method, then:
(§9) At the end of this first step, the actives having exerted an effect on β-defensin expression are selected and the supernatants corresponding to these actives are then tested using an ELISA kit in order to determine the levels of MIP3α, IL1 and IL8 secreted into the culture medium under the effect of the actives. The levels are then referred to the RNA concentration assayed in each well in order to compare results with each other.
as §8

A further test has as its system hBD2. Briefly: Qualitative RT-PCR of hBD2 expression, 1st step of the screening method. The test is classed as cell-based. Particulars: 100 μg/mL; normal human keratinocytes, 16 h. The method, then:
A 1% concentration of the actives is tested on normal human keratinocytes, as a monolayer, on 96-well culture plates, in a specific medium enriched with calcium and free of serum (final concentration 1.7 mM).
as §1, §2, §3, §4, §5, §6, §7, §8

The subject of the next test is MIP3α. The test is described as follows: ELISA of MIP3α secreted into the culture medium, 1st step. The test is classed as cell-based, human. The note with it: 100 μg/mL; keratinocyte supernatant, 16 h. On the procedure:
as §9, §8

For `CC[C@H](C)[C@H](N)C(=O)O` (racemic) [D,L-Isoleucine], in the test on hBD3, the “HBD3 expression, percentage of the positive control (IFNγ)” value was 0%. In addition, the IL8 level in the test on IL8 is recorded as 30.6 pg/mL/RNA concentration (in ng/μL). In the test with hBD2, the “HBD2 expression, percentage of the positive control (TNFα)” value worked out at 0%. In the test on MIP3α, the MIP3α level is reported as 5.6 pg/mL/RNA concentration (in ng/μL).
In the case of `CC[C@H](C)[C@H](N)C(=O)OC` [Isoleucine Methyl ester], in the test with hBD3, the “HBD3 expression, percentage of the positive control (IFNγ)” value was 6%. In the test with IL8, the IL8 level was 7.7 pg/mL/RNA concentration (in ng/μL). Besides, the “HBD2 expression, percentage of the positive control (TNFα)” value in the test on hBD2 was determined as 16%. Moreover, the MIP3α level in the test with MIP3α is 3.8 pg/mL/RNA concentration (in ng/μL).
